Source: patent publication US8431593B2, “Heteroaryl amide derivatives” (H. Lundbeck A/S, priority 2006, dated 2013)

target: T1, P2X7 receptor (Homo sapiens, UniProt Q99572); experiment: P2X7 calcium mobilization assay, high throughput, antagonist activity (Example 4A); assay type: cell-based; settings: not given
T1 construct: host or cells: SH-SY5Y
T1 sequence (Q99572 1-595): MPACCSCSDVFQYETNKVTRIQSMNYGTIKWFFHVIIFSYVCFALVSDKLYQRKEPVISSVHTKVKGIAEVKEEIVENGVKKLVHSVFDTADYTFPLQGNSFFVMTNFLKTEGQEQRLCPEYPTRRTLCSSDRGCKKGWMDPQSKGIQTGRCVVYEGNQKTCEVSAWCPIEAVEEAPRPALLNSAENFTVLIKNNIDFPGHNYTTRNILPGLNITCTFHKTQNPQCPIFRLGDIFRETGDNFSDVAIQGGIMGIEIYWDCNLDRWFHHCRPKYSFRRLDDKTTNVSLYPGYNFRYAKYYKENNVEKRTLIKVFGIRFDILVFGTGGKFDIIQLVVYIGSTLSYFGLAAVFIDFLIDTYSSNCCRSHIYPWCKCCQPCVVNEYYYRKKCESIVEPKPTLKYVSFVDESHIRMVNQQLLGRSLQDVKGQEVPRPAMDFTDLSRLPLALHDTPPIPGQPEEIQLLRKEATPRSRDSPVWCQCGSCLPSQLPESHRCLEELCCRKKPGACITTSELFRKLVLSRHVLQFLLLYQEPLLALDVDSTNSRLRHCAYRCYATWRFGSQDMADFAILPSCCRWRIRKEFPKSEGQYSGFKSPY
Outline: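 100,000 cells/well, plated day -1. Dye 1 h → rinse → compound 1 h, RT → FLIPR^TETRA Ca2+ mobilization. Max RFU minus mean negative control (no agonist); mean agonist-well max as positive control.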

SMILES	IC50
NCCNCc1cn2c(C(=O)NCC34CC5CC(CC(C5)C3)C4)cccc2n1 [Compound 122, N-(adamantan-1-ylmethyl)-2-{[(2-aminoethyl)amino]methyl}imi-dazo[1,2-a]pyridine-5-carboxamide]	< 2000 nM
NCCCNCc1cn2c(C(=O)NCC34CC5CC(CC(C5)C3)C4)cccc2n1 [Compound 123, N-(adamantan-1-ylmethyl)-2-{[(3-aminopropyl)amino]methyl}imi-dazo[1,2-a]pyridine-5-carboxamide]	< 2000 nM
CNCCN(C)Cc1cn2c(C(=O)NCC34CC5CC(CC(C5)C3)C4)cccc2n1 [Compound 124, N-(adamantan-1-ylmethyl)-2-({methyl[2-(methylamino)eth-yl]amino}methyl)imi-dazo[1,2-a]pyridine-5-carboxamide]	< 2000 nM
O=C(NCC12CC3CC(CC(C3)C1)C2)c1cccc2nc(CNCCN3CCOCC3)cn12 [Compound 125, N-(adamantan-1-ylmethyl)-2-{[(2-morpholin-4-ylethyl)amino]methyl}imi-dazo[1,2-a]pyridine-5-carboxamide]	< 2000 nM
O=C(NCC12CC3CC(CC(C3)C1)C2)c1cccc2nc(CNCCN3CCCC3)cn12 [Compound 126, N-(adamantan-1-ylmethyl)-2-{[(2-pyrrolidin-1-ylethyl)amino]methyl}imi-dazo[1,2-a]pyridine-5-carboxamide]	< 2000 nM
CN(C)CCOCc1cn2c(C(=O)NCC34CC5CC(CC(C5)C3)C4)cccc2n1 [Compound 127, N-(adamantan-1-ylmethyl)-2-{[2-(dimethylamino)eth-oxy]methyl}imi-dazo[1,2-a]pyridine-5-carboxamide]	< 2000 nM
CCOC(=O)c1cn2c(C(=O)NCC(CC(C)C)c3ccccc3)cccc2n1 (stereo not drawn) [Compound 128, ethyl 5-[(4-methyl-2-phenyl-pentyl)carbamoyl]imi-dazo[1,2-a]pyridine-2-carboxylate]	< 2000 nM
CN(CCO)Cc1cn2c(C(=O)NCC34CC5CC(CC(C5)C3)C4)cccc2n1 [Compound 131, N-(adamantan-1-ylmethyl)-2-{[(2-hydroxyethyl)(meth-yl)amino]methyl}imi-dazo[1,2-a]pyridine-5-carboxamide]	< 2000 nM
CC(C)N(CCO)Cc1cn2c(C(=O)NCC34CC5CC(CC(C5)C3)C4)cccc2n1 [Compound 132, N-(adamantan-1-ylmethyl)-2-{[(2-hydroxyethyl)(iso-propyl)amino]methyl}imi-dazo[1,2-a]pyridine-5-carboxamide]	< 2000 nM
COCCN(C)Cc1cn2c(C(=O)NCC34CC5CC(CC(C5)C3)C4)cccc2n1 [Compound 133, N-(adamantan-1-ylmethyl)-2-{[(2-methoxyethyl)(meth-yl)amino]methyl}imi-dazo[1,2-a]pyridine-5-carboxamide]	< 2000 nM
O=C(NCC12CC3CC(CC(C3)C1)C2)c1cccc2nc(CN(CCO)CCO)cn12 [Compound 136, N-(adamantan-1-ylmethyl)-2-{[bis(2-hydroxyeth-yl)amino]methyl}imi-dazo[1,2-a]pyridine-5-carboxamide]	< 2000 nM
O=C(NCC1CCCCC1)c1cccc2nc(CCl)cn12 [Compound 142, 2-(chloromethyl)-N-(cyclohexylmethyl)imi-dazo[1,2-a]pyridine-5-carboxamide]	< 2000 nM

same assay, conditions: SH-SY5Y cells; 50% decrease in fluorescence response to 80 μM BzATP; read-out: IC50

IC50	SMILES
< 2000 nM	NC1CCN(CCc2cn3c(C(=O)NCC45CC6CC(CC(C6)C4)C5)cccc3n2)CC1 [Compound 117, 2-[2-(4-amino-piperidin-1-yl)-ethyl]-imidazo[1,2-a]pyridine-5-carboxylic acid (adamantan-1-ylmethyl)-amide]
< 2000 nM	NC1CCCN(CCc2cn3c(C(=O)NCC45CC6CC(CC(C6)C4)C5)cccc3n2)C1 (stereo not drawn) [Compound 118, 2-[2-(3-amino-piperidin-1-yl)-ethyl]-imidazo[1,2-a]pyridine-5-carboxylic acid (adamantan-1-ylmethyl)-amide]
< 2000 nM	O=C(NCC12CC3CC(CC(C3)C1)C2)c1cccc2nc(CCNC3CCNCC3)cn12 [Compound 119, 2-[2-(piperidin-4-ylamino)-ethyl]-imidazo[1,2-a]pyridine-5-carboxylic acid (adamantan-1-ylmethyl)-amide]
< 2000 nM	NC1CCN(Cc2cn3c(C(=O)NCC45CC6CC(CC(C6)C4)C5)cccc3n2)CC1 [Compound 120, N-(adamantan-1-ylmethyl)-2-[(4-aminopiperidin-1-yl)methyl]imidazo[1,2-a]pyridine-5-carboxamide]
< 2000 nM	NC1CCCN(Cc2cn3c(C(=O)NCC45CC6CC(CC(C6)C4)C5)cccc3n2)C1 (stereo not drawn) [Compound 121, N-(adamantan-1-ylmethyl)-2-[(3-aminopiperidin-1-yl)methyl]imidazo[1,2-a]pyridine-5-carboxamide]
< 2000 nM	N[C@@H]1CCN(C(=O)c2cn3c(C(=O)NCC45CC6CC(CC(C6)C4)C5)cccc3n2)C1 [Compound 129, N-(adamantan-1-ylmethyl)-2-{[(3R)-3-aminopyrrolidin-1-yl]carbonyl}imidazo[1,2-a]pyridine-5-carboxamide]
< 2000 nM	NC1CN(Cc2cn3c(C(=O)NCC45CC6CC(CC(C6)C4)C5)cccc3n2)C1 [Compound 130, N-(adamantan-1-ylmethyl)-2-[(3-aminoazetidin-1-yl)methyl]imidazo[1,2-a]pyridine-5-carboxamide]
< 2000 nM	O=C(NCC12CC3CC(CC(C3)C1)C2)c1cccc2nc(CN3CCC(O)C3)cn12 (stereo not drawn) [Compound 134, N-(adamantan-1-ylmethyl)-2-[(3-hydroxypyrrolidin-1-yl)methyl]imidazo[1,2-a]pyridine-5-carboxamide]
< 2000 nM	O=C(NCC12CC3CC(CC(C3)C1)C2)c1cccc2nc(CN3CCCC(O)C3)cn12 (stereo not drawn) [Compound 135, N-(adamantan-1-ylmethyl)-2-[(3-hydroxypiperidin-1-yl)methyl]imidazo[1,2-a]pyridine-5-carboxamide]
< 2000 nM	O=C(NCC12CC3CC(CC(C3)C1)C2)c1cccc2nc(CCN3C(=O)c4ccccc4C3=O)cn12 [Compound 137, N-(adamantan-1-ylmethyl)-2-[2-(1,3-dioxo-1,3-dihydro-2H-isoindol-2-yl)ethyl]imidazo[1,2-a]pyridine-5-carboxamide]
< 2000 nM	CC(C)CC(CNC(=O)c1cccc2nc(CCl)cn12)c1ccccc1 (stereo not drawn) [Compound 138, 2-(chloromethyl)-N-(4-methyl-2-phenylpentyl)imidazo[1,2-a]pyridine-5-carboxamide]
< 2000 nM	CCOC(=O)Cc1cn2c(C(=O)NCC(CC(C)C)c3ccccc3)cccc2n1 (stereo not drawn) [Compound 139, ethyl {5-[(4-methyl-2-phenylpentyl)car-bamoyl]imidazo[1,2-a]pyridin-2-yl}acetate]
< 2000 nM	C[C@H]1CN(C(=O)Cc2cn3c(C(=O)NCC45CC6CC(CC(C6)C4)C5)cccc3n2)CCN1 [Compound 140, N-(adamantan-1-ylmethyl)-2-{2-[(3S)-3-methylpiperazin-1-yl]-2-oxoethyl}imidazo[1,2-a]pyridine-5-carboxamide]
< 2000 nM	CCOC(=O)Cc1cn2c(C(=O)NCC3CCCCC3)cccc2n1 [Compound 141, ethyl {5-[(cyclohexylmethyl)car-bamoyl]imidazo[1,2-a]pyridin-2-yl}acetate]
< 2000 nM	CCOC(=O)c1cn2c(NC(=O)CC34CC5CC(CC(C5)C3)C4)cccc2n1 [Compound 143, ethyl 5-[(adamantan-1-ylacetyl)amino]imidazo[1,2-a]pyridine-2-carboxylate]
